From PubChem BioAssay AID1159563 (GlaxoSmithKline (GSK), 2015)
Active and inactive are the calls of the source. The rule behind the calls is not given here.

Test system: HepG2 cytotoxicity
Test: HepG2 cell cytotoxicity, cytotoxicity control (AID 1159563)

| SMILES | IC50 |
| --- | --- |
| CCOc1ccc(NC(=O)C=Cc2ccc(CC)o2)cc1 | 79 µM |
| O=C(Cc1ccccc1)Nc1[nH]nc2sc(C(=O)NC3CCCC3)cc12 | 50 µM |
| NC(=O)c1cc(F)ccc1Nc1nc(NC2CCC(O)CC2)ncc1Cl (configuration not stated) | > 100 µM (inactive) |
| CN(CCOc1ccc(Cl)cc1)Cc1nc(N)nc(N(C)C)n1 | > 100 µM (inactive) |
| C[C@@H](Oc1cc(-n2cnc3cc(N)ccc32)sc1C(N)=O)c1ccccc1Cl | 20 µM |
| CN(CC1CCCO1)S(=O)(=O)c1ccc(C(=O)Nc2nc(-c3ccccn3)cs2)cc1 (configuration not stated) | 63 µM |
| CC(=O)Nc1cccc(Nc2ncnc3nc[nH]c23)c1 | > 100 µM (inactive) |
| COc1ccc2ncc(Cl)c(CCN3CC[C@H](NCc4cc5c(cn4)OCS5)[C@@H](O)C3)c2n1 | 25 µM |
| CNC(=O)C1Cc2ccccc2N1C(=O)COc1cccc(OC)c1 (configuration not stated) | > 100 µM (inactive) |
| O=C(Nc1nc(-c2ccccn2)cs1)c1ccccc1-n1cnnn1 | 1.6 µM |
| O=C(Nc1cccc(F)c1)N1CCC(Oc2cccc(-c3cccnc3)c2)CC1 | > 100 µM (inactive) |
| O=C(c1cccc(Nc2ncc(-c3ccc4c(c3)OCO4)cn2)c1)N1CCSC1 | 10 µM |
| CN(Cc1ccccc1)Cc1nnnn1C1CCN(Cc2ccc(-n3ccnc3)cc2)CC1 | > 100 µM (inactive) |
| COc1cccc2sc(CN(C)C(=O)C3CNCCN3c3ccc(F)cc3)c(C)c12 (configuration not stated) | 13 µM |
| N#Cc1c(Oc2cccc(Cl)c2)cccc1[N+](=O)[O-] | 25 µM |
| Cc1cc2cc(CNc3ccc4c(c3)OCO4)c(=O)n(CCO)c2cc1C | > 100 µM (inactive) |
| O=C(NC(CO)c1ccc(F)cc1)c1ccc(-c2c[nH]c3ncccc23)s1 (configuration not stated) | 40 µM |
| CC(c1ccc2c(c1)CCCC2)N(C)c1ncc2c(N)nc(N)nc2n1 (configuration not stated) | 50 µM |
| COc1cc(Nc2nccc(Nc3onc(C)c3C)n2)cc(S(=O)(=O)C2CCOCC2)c1 | 32 µM |
| O=C(Nc1nc(-c2ccc(F)cc2)cs1)c1ccc([N+](=O)[O-])s1 | 13 µM |
| CC(C)n1c(-c2nonc2N)nc2cccc(OCCN3CCCC3)c21 | > 100 µM (inactive) |
| Cc1cc(Nc2cc(C3CC3)[nH]n2)nc(N2CCC[C@H]2C(N)=O)n1 | > 100 µM (inactive) |
| O=C(NCC1CCCCN1C(=O)c1cccc2ccccc12)c1ccccc1 (configuration not stated) | > 100 µM (inactive) |
| O=[N+]([O-])c1ccc(-c2nnn(-c3ccc(Cl)cc3)n2)o1 | > 100 µM (inactive) |

| SMILES | IC50 |
| --- | --- |
| Cc1ccc(CNC2CCN(C[C@@H]3Cn4c(=O)ccc5ccc(=O)n3c54)CC2)cc1F | > 100 µM (inactive) |
| N#Cc1cc(N2CCCC2=O)ccc1Sc1ccccc1CO | > 100 µM (inactive) |
| Cc1ccc(NC(=O)c2ccc([N+](=O)[O-])s2)cc1S(=O)(=O)N1CCOCC1 | 16 µM |
| COc1cccc(-c2cc(C(F)(F)F)nc(-n3ccc([N+](=O)[O-])n3)n2)c1 | > 100 µM (inactive) |
| COc1ccc(C(=O)N2CCC(Nc3cccnc3)C2)c(OC)n1 (configuration not stated) | > 100 µM (inactive) |
| COC(=O)c1ccc(-c2cnc3ccc(NCc4ccccn4)nn23)cc1 | 100 µM |
| O=C(NCC1CCCCC1)c1cnns1 | 40 µM |
| Cc1cc2ncn(-c3ccc([N+](=O)[O-])cc3C#N)c2cc1C | > 100 µM (inactive) |
| O=C(Nc1nccs1)c1ccccc1Cn1cc([N+](=O)[O-])cn1 | > 100 µM (inactive) |
| CCOc1ccc(CC(=O)N2c3ccccc3CC2C(=O)NC)cc1 (configuration not stated) | > 100 µM (inactive) |
| O=C(C1CCCCC1)N1CCN(c2nnc(-c3ccccc3)c3ccccc23)CC1 | > 100 µM (inactive) |
| CC1(Oc2cncc(Cl)c2)CCN(Cc2cc3ccccc3[nH]2)C1 (configuration not stated) | 32 µM |
| CC(=O)Nc1ccc(Nc2nccc(-c3cnn4ncccc34)n2)cc1C(F)(F)F | > 100 µM (inactive) |
| Cn1cncc1CN1CCC2(CC1)COC(Cc1ccccc1)C2 (configuration not stated) | > 100 µM (inactive) |
| O=C(NCCc1ccccn1)C(c1cn[nH]c1)N1CCN(c2ccc(Cl)c(Cl)c2)CC1 (configuration not stated) | > 100 µM (inactive) |
| CCOc1ccccc1C(=O)Nc1nnc(-c2ccc3c(c2)OCO3)s1 | > 100 µM (inactive) |
| O=C(c1cccc(Nc2ncc(-c3ccc4c(c3)OCO4)cn2)c1)N1CCOCC1 | > 130 µM (inactive) |
| Cc1nn(-c2nc3ccccc3s2)c2c1C(c1ccc(OCC(N)=O)cc1)SCC(=O)N2 (configuration not stated) | > 100 µM (inactive) |
| COc1ccc2ncc(=O)n(CCN3CC[C@H](NCc4ncc(Cl)c5[nH]ncc45)[C@H](O)C3)c2n1 | > 100 µM (inactive) |
| O=C(NCCc1cccnc1)c1csc(-c2ccccc2)n1 | > 100 µM (inactive) |
| Cn1nc([N+](=O)[O-])nc1N1CCCCC1 | > 100 µM (inactive) |
| Nc1cc(-c2ccc3ncnc(N4CCOCC4)c3c2)cnc1N | > 100 µM (inactive) |
| CCC(=O)N1N=C(c2ccc3c(c2)CCCC3)Sc2c1ncn2C(=O)CC | > 100 µM (inactive) |
| CC(C)CC(=O)NC(c1cccs1)c1ccc2cccnc2c1O (configuration not stated) | > 100 µM (inactive) |

| SMILES | IC50 |
| --- | --- |
| CC1CN(S(=O)(=O)c2ccc(NC(=O)c3cc(C4CC4)nc4c3cnn4C(C)C)cc2)CC(C)O1 (configuration not stated) | > 100 µM (inactive) |
| NCC(Cc1ccccc1)NC(=O)c1cnc(-c2c[nH]c3ncccc23)s1 (configuration not stated) | 79 µM |
| COc1ccc(S(=O)(=O)NC(C)C)cc1Nc1ncc(-c2cccc(F)c2)cn1 | > 100 µM (inactive) |
| COc1ccc(-c2cnc(NC(=O)c3ccc(F)cc3)n2C)cc1 | > 100 µM (inactive) |
| COc1ccnc2[nH]cc(-c3cc(C(=O)N[C@H](CO)c4ccccc4)co3)c12 | 16 µM |
| O=C(Nc1ccc(S(=O)(=O)N2CCCC2)cc1)c1ccc([N+](=O)[O-])s1 | 6.3 µM |
| NC(N)=Nc1nc(-c2ccc(NC(N)=NCCN3CCCC3)cc2)cs1 | > 100 µM (inactive) |
| O=c1oc2ccccc2n1C1CCN(Cc2ccccc2-c2cccnc2)CC1 | > 100 µM (inactive) |
| Cc1nn(-c2nc(N)nc(-c3ccccn3)n2)c(N)c1-c1ccccc1 | 63 µM |
| COc1ccc(NS(=O)(=O)c2ccc(S(=O)(=O)N(C)C3CCCCC3)cc2)c2ncccc12 | > 100 µM (inactive) |
| N#Cc1ccccc1S(=O)(=O)N1CCN(C(=O)CNC(=O)c2ccc3c(c2)OCO3)CC1 | > 100 µM (inactive) |
| CCOc1cc(NCCCN2CCN(C)CC2)c2ncccc2c1 | 32 µM |
| CN(C)CCN(C)Cc1ccc(Cl)cc1NS(=O)(=O)c1ccc(Cl)c(Cl)c1 | 32 µM |
| Cc1[nH]nc(-c2nc3ccccc3[nH]2)c1C(=O)NC1CCCNC1 (configuration not stated) | > 100 µM (inactive) |
| Cc1[nH]nc(C(F)(F)F)c1NC(=O)CCn1cc(Cl)c([N+](=O)[O-])n1 | > 100 µM (inactive) |
| CCNc1cc(-c2ccccn2)nc(Nc2ccc(OC)cc2)n1 | 40 µM |
| O=C(NCCc1csc(-c2cccc(F)c2)n1)c1ccco1 | > 100 µM (inactive) |
| CC(C)(C)C(=O)NCCc1csc(-c2ccc(F)cc2)n1 | > 100 µM (inactive) |
| COc1ccc(C2C3CCCCC3(O)CCN2CC(=O)Nc2ccc(Cl)cc2Cl)cc1 (configuration not stated) | > 100 µM (inactive) |
| COc1ccc(CN2C(=O)C(O)(CC(=O)c3ccncc3)c3cc(Br)ccc32)cc1OC (configuration not stated) | 40 µM |
| CNc1cncc(C2CCCN2C(=O)Cc2ccc3ccccc3c2)n1 (configuration not stated) | > 100 µM (inactive) |
| COc1ccc(Nc2nc(-c3ccccn3)cs2)c(OC)c1 | > 100 µM (inactive) |
| O=c1cc(NCCCNCc2cc(C(F)(F)F)cs2)[nH]c2ccccc12 | 63 µM |
| NCc1csc(Nc2cc(Oc3ccccc3)ncn2)n1 | > 100 µM (inactive) |
